{"source": "patent US5183828A", "about": "“Polyhydroxybenzoic acid derivatives” (priority 1990, dated 1993)", "key": {"[1]": {"system": "DMPO-OH and DMPO-R radical adducts in coronary effluent of reperfused rabbit hearts", "experiment": "EPR spin trapping (DMPO) on coronary effluent of reperfused rabbit hearts", "parameters": "species or system New Zealand white rabbits", "method": "(§1) Female New Zealand white rabbits (2 kg) were heparinized and anesthetized and their hearts removed. The isolated rabbit hearts were perfused by the method of Langendorff at a constant pressure of 80 mm Hg with a Krebs-bicarbonate-buffered perfusate which was bubbled with 95% O2, 5 % CO2 gas. Chelex-treated perfusate was prepared by eluting the solution through a column of chelex 100 resin which was pre-equilibrated with 4 volumes of the perfusate solution. All perfusate solutions were routinely filtered through 0.8 um millipore filters prior to use. Heart rate and left ventricular developed pressure were measured using a fluid-filled balloon secured into the left ventrile. The balloon was connected to a Statham P23 DB pressure transducer via a hydraulic line and the transducer output amplified to a strip chart recorder. […]\nEPR spectra were recorded in flat cells at room temperature with either Varian E-9 or Bruker-IBM ER 300 spectrometers operating at X-band using 100 kHz modulation frequency and with TE 104 or TM 110 cavities. The microwave frequency and magnetic field were precisely measured using a Hewlett Packard 5342A Microwave Frequency counter and Bruker ER 035M NMR Gaussmeter. […] Quantitation of the free radical signals was performed by comparing the double integral of the observed signal to that of a known concentration of the tempo free radical in aqueous solution. […]"}, "[2]": {"system": "isolated rabbit hearts", "experiment": "contractile function in isolated Langendorff rabbit heart after global ischemia and reperfusion, Table 9", "parameters": "species or system New Zealand white rabbits", "details": "30 min global ischemia, 45 min reperfusion; bolus of 10 mM solution then 100 uM over first min; control 49 ± 9 (p<0.01)", "description": "The compounds of this invention, as represented by the above formula, are useful in treating ischemia reperfusion injury, presumably because of their free-radical scavenging ability. The following protocol illustrates this activity on the ischemia produced during treatment of coronary artery disease.\nas §1, with “recorder. The ventricular volume was adjusted to achieve a left ventricular end disastolic pressure of 12 mmHg. During periods of global ischemia, the balloon was deflated and then reinflated 15 min after reflow.” for “recorder.”"}, "[3]": {"system": "superoxide (xanthine oxidase reaction or human leukocytes)", "experiment": "effect on superoxide generation in vitro", "type": "biochemical", "method": "The rate of production of superoxide from the xanthine oxidase reaction or from human leukocytes activated with phorbol myristate acetate was measured spectrophotometrically as the superoxide dismutase (SOD)-inhibitable portion of the reduction of ferricytochrome c or nitroblue tetrazolium (NBT). All assays were carried out at 37° C., pH 7.1. For the superoxide production by the xanthine oxidase reaction, a concentration of 0.04 U/ml of xanthine oxidase was used with 0.1 mM xanthine as substrate. Absorbances were measured in the presence of 30 U/ml of SOD and in its absence. The indicators were either ferricytochrome c or NBT in a concentration of 20 uM. The initial rate of reduction of NBT was monitored at 530 nm and that of cytochrome c at 550 nm. Extinction coefficients were 21.4×10 ^3 /M cm for cytochrome c and 17.9×10^3 /M cm for NBT. The initial rate of production of superoxide from leukocytes was measured using a concentration of 20 uM ferricytochrome c or NBT as described above in the presence and absence of 30 U/ml of SOD."}}}
{"molecule": "NC(=NO)c1cc(O)c(O)c(O)c1", "note": "[3,4,5-trihydroxybenzamidoxime]", "values": [{"measurement": "DMPO-OH and DMPO-R EPR signals upon reperfusion", "setting": "[1]; 40 mM DMPO, post-ischemic reperfusion with drug", "value": "not observed"}, {"measurement": "new radical EPR signal on reperfusion with drug", "setting": "[1]; with or without DMPO", "value": "appears as a single broad peak centered at 3480 G"}, {"measurement": "Left ventricular developed pressure", "setting": "[2]", "value": "67±9", "unit": "mm Hg"}, {"measurement": "Cytochrome C Reduction", "setting": "[3]; 10 uM compound", "value": 4.73, "unit": "nmol"}, {"measurement": "NBT Reduction", "setting": "[3]; 10 uM compound", "value": 5.35, "unit": "nmol"}, {"measurement": "Cytochrome C Reduction", "setting": "[3]; 20 uM compound", "value": 4.56, "unit": "nmol"}, {"measurement": "NBT Reduction", "setting": "[3]; 20 uM compound", "value": 5.06, "unit": "nmol"}, {"measurement": "Cytochrome C Reduction", "setting": "[3]; 50 uM compound", "value": 5.38, "unit": "nmol"}, {"measurement": "NBT Reduction", "setting": "[3]; 50 uM compound", "value": 2.55, "unit": "nmol"}, {"measurement": "Cytochrome C Reduction", "setting": "[3]; 100 uM compound", "value": 6.06, "unit": "nmol"}, {"measurement": "NBT Reduction", "setting": "[3]; 100 uM compound", "value": 1.14, "unit": "nmol"}, {"measurement": "Cytochrome C Reduction", "setting": "[3]; 200 uM compound", "value": 6.50, "unit": "nmol"}, {"measurement": "NBT Reduction", "setting": "[3]; 200 uM compound", "value": 0.81, "unit": "nmol"}, {"measurement": "Cytochrome C Reduction", "setting": "[3]; 300 uM compound", "value": 6.25, "unit": "nmol"}, {"measurement": "NBT Reduction", "setting": "[3]; 300 uM compound", "value": 0.71, "unit": "nmol"}, {"measurement": "Cytochrome C Reduction", "setting": "[3]; 500 uM compound", "value": 5.81, "unit": "nmol"}, {"measurement": "NBT Reduction", "setting": "[3]; 500 uM compound", "value": 0.87, "unit": "nmol"}]}
